How the values were obtained:
[1] = biological target: T1, Histone deacetylase HD2 (Zea mays) (UniProt Q94F81); experiment: Inhibitory concentration against deacetylase HD2 enzyme of maize at 30 uM
T1 sequence (whole entry): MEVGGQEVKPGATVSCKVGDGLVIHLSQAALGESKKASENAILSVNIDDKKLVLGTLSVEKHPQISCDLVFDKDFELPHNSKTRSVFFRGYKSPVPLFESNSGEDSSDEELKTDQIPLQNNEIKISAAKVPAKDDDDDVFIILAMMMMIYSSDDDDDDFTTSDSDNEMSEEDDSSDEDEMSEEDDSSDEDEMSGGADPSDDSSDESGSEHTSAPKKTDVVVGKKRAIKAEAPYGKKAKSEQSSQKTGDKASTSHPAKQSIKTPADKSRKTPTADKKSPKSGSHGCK

[2] = biological target: T1, Histone deacetylase HD2 (Zea mays)

| Structure (SMILES) | inhibition [1] [%] | IC90 [2] [nM] |
| --- | --- | --- |
| COC(=O)[C@H](Cc1ccccc1)NC(=O)CCCCCCC(=O)NO | 76 | – |
| O=C(CCCCCCC(=O)N[C@@H](Cc1ccccc1)C(=O)O)NO | 82 | – |
| CN(C)c1ccc(C(=O)NCCCCCC(=O)NO)cc1 | 94 | – |
| CC(/C=C/C(=O)NO)=C\[C@@H](C)C(=O)c1ccc(N(C)C)cc1 | – | 100 |
